Values after ≈ are worked out from the molar mass of the structure shown.
Key:
[1] = system: Radical scavenging activity; assay: Antioxidant activity assessed as DPPH free radical scavenging activity; format: functional
HMEC = assay: Cytotoxicity against HMEC; format: cell-based; settings: Homo sapiens
SMMC-7721 = assay: Cytotoxicity against human SMMC7721 cells; format: functional, cell-based
A549 = assay: Cytotoxicity against human A549 cells; format: functional, cell-based

| IC50 [1] | Compound | IC50 (HMEC) | IC50 (SMMC-7721) | IC50 (A549) |
| --- | --- | --- | --- | --- |
| 88 µg/mL (≈ 295 µM) | CCC/C=C/c1cc2c(C=O)c(O)c(CC=C(C)C)cc2o1 | – | – | – |
| 35 µg/mL (≈ 111 µM) | CC(C)=CCc1cc2c(c(C=O)c1O)CCC(/C=C/C(C)O)O2 (configuration not stated) [CHAETOPYRANIN] | 15.4 µg/mL (≈ 48.7 µM) | 28.5 µg/mL (≈ 90.1 µM) | 39.1 µg/mL (≈ 124 µM) |
| 26 µg/mL (≈ 86 µM) | C/C=C/CCCCc1c(O)cc(CC=C(C)C)c(O)c1C=O [ISOTETRAHYDROAUROGLAUCIN] | – | – | – |
| 62 µg/mL (≈ 206 µM) | COc1cc(O)c2c(c1)C(=O)c1c(O)c(C)cc(O)c1C2=O [PARIETIN] | – | – | – |

Source: ChEMBL document CHEMBL1158110, “Chaetopyranin, a benzaldehyde derivative, and other related metabolites from Chaetomium globosum, an endophytic fungus derived from the marine red alga Polysiphonia urceolata” (J Nat Prod, 2006)
